Here are results for one substance from PMC7463930, “Evidence Supporting an Antimicrobial Origin of Targeting Peptides to Endosymbiotic Organelles” (Cells, 2020).

No end group written: not given here.

This test has as its system Bacillus subtilis. Briefly: Standard minimum inhibitory concentration broth microdilution assay. It counts as cell-based. As to the method:
Standard minimum inhibitory concentration broth microdilution assays in the presence of BSA/acetic acid were performed in triplicate as described in [65] using peptides chemically synthesized to ≥95% purity (Proteogenix). Dilution series are based on net peptide content, calculated by multiplying the dry weight by %N and by purity. %N is a measure of the peptide (rather than salt) fraction in the lyophilized product, while purity, provided by the manufacturer, is the fraction of the peptide with the desired sequence among all supplied peptides.
To determine the AMP-activity of TPs, we performed the symmetrical experiment. Several chemically synthesized TPs, chosen for their variable proximity to Class I HA-RAMPs (Figure S8B), were used to challenge Bacillus subtilis in a standard assay, using magainin II as a positive control (Figure 7). […] A high sensitivity was deemed a useful feature for an antimicrobial assay in this proof-of-principle experiment, since we expected TPs to have a lower activity than bona fide AMPs as they have been selected for targeting and not for impeding microbial growth over the last 1.5 By.
B. subtilis was challenged with serial dilutions of synthetic peptides (See Table S7 for sequences): the Rattus norvegicus peptide hormone cholecystokinin-22, the C. reinhardtii tSP of lumenal 16.5 kDa protein, the HA-RAMP magainin II, Neurospora crassa mTP of ATP synthase F1β subunit and C. reinhardtii cTPs from RBCA and plastocyanin (PCY1) or mTPs from cytochrome c oxidase 12 kDa subunit (COX13) and Serine HydroxylMethyl Transferase 1 (SHMT1). (A) One dilution plate out of three performed replicates is shown to illustrate how the data was obtained. Transparent wells illustrate absence of growth. Red arrows point to the minimal peptide inhibiting concentration. (B) Minimum inhibitory concentrations (MIC) for each of the three replicate plates are reported in a table. TEXT PRINTED IN THE PICTURE: (B) cck-22: MIC (μg/ml) rep 1: >1000; MIC (μg/ml) rep 2: >1000; MIC (μg/ml) rep 3: >1000 | (B) TL16-tSP: MIC (μg/ml) rep 1: >1000; MIC (μg/ml) rep 2: >1000; MIC (μg/ml) rep 3: >1000 | (B) Magainin II: MIC (μg/ml) rep 1: 4; MIC (μg/ml) rep 2: 4; MIC (μg/ml) rep 3: 4 | (B) pF1β-mTP: MIC (μg/ml) rep 1: 8; MIC (μg/ml) rep 2: 4; MIC (μg/ml) rep 3: 8 | (B) RBCA-cTP: MIC (μg/ml) rep 1: 63; MIC (μg/ml) rep 2: 63; MIC (μg/ml) rep 3: 63 | (B) COX13-mTP: MIC (μg/ml) rep 1: 250; MIC (μg/ml) rep 2: 250; MIC (μg/ml) rep 3: 250 | (B) PCY1-cTP: MIC (μg/ml) rep 1: 1000; MIC (μg/ml) rep 2: 1000; MIC (μg/ml) rep 3: 1000 | (B) SHMT1-mTP: MIC (μg/ml) rep 1: 31; MIC (μg/ml) rep 2: 31; MIC (μg/ml) rep 3: 31

For “cholecystokinin-22 (NLQGLDPSHRISDRDYMGWMDF; ends and bridges not checked; UniProt P01355 82-103, looked up) [cck-22, Rattus norvegicus small peptide hormone cholecystokinin-22, used as negative control]”, for the setting “B. subtilis challenged with chemically synthesized peptides, negative controls”, the “inhibited growth (in words)” value is “neither”. The “MIC (μg/ml) rep 1” value (B. subtilis, broth microdilution in the presence of BSA/acetic acid, serial dilutions based on net peptide content, peptides synthesized to ≥95% purity, replicate plate 1 of 3) was > 1000 µg/mL. In addition, for the setting “B. subtilis, broth microdilution in the presence of BSA/acetic acid, serial dilutions based on net peptide content, peptides synthesized to ≥95% purity, replicate plate 2 of 3”, the “MIC (μg/ml) rep 2” value is > 1000 µg/mL. For the same substance, the “MIC (μg/ml) rep 3” value (B. subtilis, broth microdilution in the presence of BSA/acetic acid, serial dilutions based on net peptide content, peptides synthesized to ≥95% purity, replicate plate 3 of 3) was > 1000 µg/mL.
